Experiments:
[1] = test system: ATP DNA aptamer (with 5' extension) (DNA, aptamer) TCACTGACCTGGGGGAGTATTGCGGAGGAAGGT; assay: solution FRET dose-response, quencher strand displacement; settings: 300 mM NaCl, 5 mM MgCl2; 20 mM Tris, pH 8.3, 0.1% Tween-20, 22.5 °C; BHQ-2 ACEs 5'Q-2T:9, 5'Q4T:10, 5'Q4T:12:6G, 5'Q1A:15, 5'Q-5C:9 displaced
[2] = test system: ATP RNA aptamer (RNA, aptamer) CUUGGGUUGGGAAGAAACUGUGGCACUUCGGUGCCAGCAACCCCAU; assay: ACE-Scan microarray, ligand-induced duplex dissociation; settings: 300 mM NaCl, 5 mM MgCl2; 20 mM Tris, pH 7.6, room temperature; 10 mM ATP; array-bound ACEs displaced
[3] = test system: add riboswitch aptamer (RNA, riboswitch) CAACGCUUCAUAUAAUCCUAAUGAUAUGGUUUGGGAGUUUCUACCAAGAGCCUUAAACUCUUGAUUAUGAAGUCUGUCGCUUUAUCC; assay: as above; settings: 130 mM KCl, 12 mM MgCl2; 50 mM Tris, pH 7.5, 23 °C; 4 mM adenine; array-bound ACEs displaced; weaker at lower Mg2+ or 10 °C

SMILES	binding [1]	binding [2]	binding [3]
Nc1ncnc2c1ncn2[C@@H]1O[C@H](COP(=O)(O)OP(=O)(O)OP(=O)(O)O)[C@@H](O)[C@H]1O	yes	yes	–
Nc1ncnc2[nH]cnc12	–	–	yes

Source: PMC5783947 (2018)
